ChEMBL document CHEMBL1127311, “Derivatives of 4-(2'-methoxyphenyl)-1-[2'-(N-2"-pyridinyl-p-iodobenzamido)ethyl]pipera zine (p-MPPI) as 5-HT1A ligands” (J Med Chem, 1994)

Species on record: Rattus norvegicus
Test: not given

SMILES | Kd
COc1ccccc1N1CCN(CCN(C(=O)c2ccc(F)cc2)c2ccccn2)CC1 | 0.0003 µM
COc1ccccc1N1CCN(CCN(C(=O)c2ccc(I)cc2)c2ccccn2)CC1 | 0.0003 µM

These compounds were tested against T1, 5-hydroxytryptamine receptor 1A (Rattus norvegicus, UniProt P19327) (assay: biochemical).
T1 sequence (P19327 whole entry): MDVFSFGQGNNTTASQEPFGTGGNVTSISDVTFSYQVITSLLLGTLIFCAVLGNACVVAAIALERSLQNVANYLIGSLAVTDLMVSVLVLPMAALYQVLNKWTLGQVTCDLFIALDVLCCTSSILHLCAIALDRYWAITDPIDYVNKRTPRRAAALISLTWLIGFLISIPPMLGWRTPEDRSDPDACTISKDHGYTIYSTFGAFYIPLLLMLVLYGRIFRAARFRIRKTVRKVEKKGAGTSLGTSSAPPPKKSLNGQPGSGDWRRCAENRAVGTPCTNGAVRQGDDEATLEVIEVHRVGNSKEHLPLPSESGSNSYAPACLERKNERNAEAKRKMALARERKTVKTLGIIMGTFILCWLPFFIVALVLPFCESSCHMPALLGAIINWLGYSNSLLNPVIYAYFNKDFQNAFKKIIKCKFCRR
Description: In vitro binding affinity to 5-hydroxytryptamine 1A receptor using [125I](R)-(+)-trans-8-OH-PIPAT as radioligand in rat hippocampal homogenate

SMILES | IC50
COc1ccccc1N1CCN(C[C@@H](C(=O)NC(C)(C)C)c2ccccc2)CC1 | 0.015 µM

Biological target: T1, 5-hydroxytryptamine receptor 1A
Test: biochemical
Remark: another data set of the same source
Description: In vitro binding affinity to 5-hydroxytryptamine 1A receptor in rat hippocampal homogenate by [125I](R)-(+)-trans-8-OH-PIPAT displacement.

SMILES | Ki
COc1ccccc1N1CCN(CCN(C(=O)c2cccc(C)c2)c2ccccn2)CC1 | 0.0161 µM
CCCCCCc1ccc(C(=O)N(CCN2CCN(c3ccccc3OC)CC2)c2ccccn2)cc1 | 0.0579 µM
COc1ccccc1N1CCN(CCN(C(=O)c2ccc(N)c(I)c2)c2ccccn2)CC1 | 0.0177 µM
COc1ccccc1N1CCN(CCN(C(=O)c2ccc(C)cc2)c2ccccn2)CC1 | 0.0022 µM
CCCCCc1ccc(C(=O)N(CCN2CCN(c3ccccc3OC)CC2)c2ccccn2)cc1 | 0.075 µM
CCCCc1ccc(C(=O)N(CCN2CCN(c3ccccc3OC)CC2)c2ccccn2)cc1 | 0.0132 µM
CCCCCCCc1ccc(C(=O)N(CCN2CCN(c3ccccc3OC)CC2)c2ccccn2)cc1 | 0.0818 µM
CCCc1ccc(C(=O)N(CCN2CCN(c3ccccc3OC)CC2)c2ccccn2)cc1 | 0.0103 µM
COc1ccccc1N1CCN(CCN(C(=O)c2ccc(CCl)cc2)c2ccccn2)CC1 | 0.0035 µM
COc1ccccc1N1CCN(CCN(C(=O)c2ccc(N)cc2)c2ccccn2)CC1 | 0.01 µM
COc1ccccc1N1CCN(CCN(C(=O)c2ccc(NC(=O)CCl)cc2)c2ccccn2)CC1 | 0.022 µM
COc1ccccc1N1CCN(CCN(C(=O)c2ccc(F)cc2)c2ccccn2)CC1 | 0.0032 µM
COc1ccccc1N1CCN(CCN(C(=O)c2ccc(C(C)(C)C)cc2)c2ccccn2)CC1 | 0.027 µM
CCc1ccc(C(=O)N(CCN2CCN(c3ccccc3OC)CC2)c2ccccn2)cc1 | 0.0093 µM
COc1ccccc1N1CCN(CCN(C(=O)c2ccc(N=[N+]=[N-])c(I)c2)c2ccccn2)CC1 | 0.025 µM
COc1ccccc1N1CCN(CCN(C(=O)c2ccccc2)c2ccccn2)CC1 | 0.0025 µM
